pEC50: −log10 of the molar value. Read-outs that look alike come from different tables or passages of the source. Each block holds one molecule with its values, some of them ahead of it.
Experiments:
Hsp90 in HEPG2 lysate = conditions: for FP signal (raw) / FP signal: HepG2 lysate; for FP signal: raw; for pEC50: Human lysate
[1] = molecular target: T1, Hsp90 in C. albicans (SC5314) lysate (Candida albicans, UniProt P46598); assay: biochemical; format: binding; conditions: for FP signal: raw
T1 construct: endogenous in cells; host or cells: C. albicans SC5314 whole-cell lysate

[2] = SC5314 lysate, 0.457 nM compound
[3] = SC5314 lysate, 1.372 nM compound
[4] = SC5314 lysate, 4.115 nM compound
[5] = SC5314 lysate, […] nM compound
[6] = SC5314 lysate, 37.037 nM compound
[7] = SC5314 lysate, 111.111 nM compound
[8] = SC5314 lysate, 333.333 nM compound
[9] = SC5314 lysate, 1000 nM compound
[10] = SC5314 lysate, 3000 nM compound

T1 sequence (P46598 whole entry): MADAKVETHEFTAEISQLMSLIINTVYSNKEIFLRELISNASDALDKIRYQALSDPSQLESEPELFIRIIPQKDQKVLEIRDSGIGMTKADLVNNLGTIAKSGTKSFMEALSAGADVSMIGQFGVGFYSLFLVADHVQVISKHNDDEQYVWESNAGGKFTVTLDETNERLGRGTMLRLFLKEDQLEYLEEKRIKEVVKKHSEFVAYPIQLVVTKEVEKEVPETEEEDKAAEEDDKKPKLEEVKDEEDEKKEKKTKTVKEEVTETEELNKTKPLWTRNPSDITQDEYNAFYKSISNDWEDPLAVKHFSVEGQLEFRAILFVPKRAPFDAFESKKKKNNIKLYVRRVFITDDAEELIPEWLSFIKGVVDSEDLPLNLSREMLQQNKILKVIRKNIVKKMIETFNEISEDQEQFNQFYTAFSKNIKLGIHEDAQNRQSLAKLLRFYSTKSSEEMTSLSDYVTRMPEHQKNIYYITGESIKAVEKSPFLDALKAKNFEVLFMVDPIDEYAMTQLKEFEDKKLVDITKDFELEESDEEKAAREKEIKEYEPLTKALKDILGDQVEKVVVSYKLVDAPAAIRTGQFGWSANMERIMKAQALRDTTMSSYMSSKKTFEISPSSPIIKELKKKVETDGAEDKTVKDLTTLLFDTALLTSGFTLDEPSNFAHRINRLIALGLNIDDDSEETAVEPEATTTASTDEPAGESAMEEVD

Ratio re. GdA ([1]; EC50 relative to GdA, SC5314 lysate): 79.2475
FP signal (raw) ([1]; SC5314 lysate, 0.457 nM): 204
FP signal relative to 0 nM [1, 2]: 1.02
FP signal [1, 2]: 204
FP signal (raw) ([1]; SC5314 lysate, 1.372 nM): 206
FP signal relative to 0 nM [1, 3]: 1.03
FP signal [1, 3]: 206
FP signal (raw) ([1]; SC5314 lysate, 4.115 nM): 205
FP signal relative to 0 nM [1, 4]: 1.025
FP signal [1, 4]: 205
FP signal (raw) ([1]; SC5314 lysate, […] nM): 200
FP signal relative to 0 nM [1, 5]: 1
FP signal [1, 5]: 200
FP signal (raw) ([1]; SC5314 lysate, 37.037 nM): 198
FP signal relative to 0 nM [1, 6]: 0.99
FP signal [1, 6]: 198
FP signal (raw) ([1]; SC5314 lysate, 111.111 nM): 193
FP signal relative to 0 nM [1, 7]: 0.965
FP signal [1, 7]: 193
FP signal (raw) ([1]; SC5314 lysate, 333.333 nM): 171
FP signal relative to 0 nM [1, 8]: 0.855
FP signal [1, 8]: 171
FP signal (raw) ([1]; SC5314 lysate, 1000 nM): 116
FP signal relative to 0 nM [1, 9]: 0.58
FP signal [1, 9]: 116
FP signal (raw) ([1]; SC5314 lysate, 3000 nM): 52
FP signal relative to 0 nM [1, 10]: 0.26
FP signal [1, 10]: 52
HepG2/SC5314 ([1]; ratio of GdA-normalized EC50s, human over fungal lysate): 1.707
HepG2/SC5314 ([1]; ratio of GdA-relative EC50 ratios, HepG2 over SC5314): 1.707
Compound: COc1ccc(CON=C2C=CC=CC3OC3CC(C)OC(=O)c3c(O)cc(O)c(Cl)c3C2)cc1 (mixture of isomers) [compound 224]
Ratio rel. GdA (HepG2) (Hsp90 in HEPG2 lysate; EC50 / EC50 of GdA in HepG2 lysate): 135.257
Ratio rel. GdA (HepG2) (Hsp90 in HEPG2 lysate; EC50 relative to GdA, HEPG2 lysate): 135.257
FP signal, Fxn Control (Hsp90 in HEPG2 lysate; HEPG2 lysate, log concentration 0.137354 (1.372 nM)): 1.005
FP signal, Fxn Control (Hsp90 in HEPG2 lysate; HEPG2 lysate, log concentration 0.61437 (4.115 nM)): 0.9952
FP signal, Fxn Control (Hsp90 in HEPG2 lysate; HEPG2 lysate, log concentration 1.09153 (12.346 nM)): 1.01
FP signal, Fxn Control (Hsp90 in HEPG2 lysate; HEPG2 lysate, log concentration 1.56864 (37.037 nM)): 1.014
FP signal, Fxn Control (Hsp90 in HEPG2 lysate; HEPG2 lysate, log concentration 2.04576 (111.111 nM)): 1.005
FP signal, Fxn Control (Hsp90 in HEPG2 lysate; HEPG2 lysate, log concentration 2.52288 (333.333 nM)): 0.9952
FP signal, Fxn Control (Hsp90 in HEPG2 lysate; HEPG2 lysate, log concentration 3 (1000 nM)): 0.8702
FP signal, Fxn Control (Hsp90 in HEPG2 lysate; HEPG2 lysate, log concentration 3.47712 (3000 nM)): 0.5048
FP signal, Fxn Control (Hsp90 in HEPG2 lysate; HEPG2 lysate, log concentration -0.340084 (0.457 nM)): 0.9904
FP signal (raw) (Hsp90 in HEPG2 lysate; 0.457 nM): 206
FP signal (Hsp90 in HEPG2 lysate; 0.457 nM compound): 206
FP signal (raw) (Hsp90 in HEPG2 lysate; 1.372 nM): 209
FP signal (Hsp90 in HEPG2 lysate; 1.372 nM compound): 209
FP signal (raw) (Hsp90 in HEPG2 lysate; 4.115 nM): 207
FP signal (Hsp90 in HEPG2 lysate; 4.115 nM compound): 207
FP signal (raw) (Hsp90 in HEPG2 lysate; 12.346 nM): 210
FP signal (Hsp90 in HEPG2 lysate; 12.346 nM compound): 210
FP signal (raw) (Hsp90 in HEPG2 lysate; 37.037 nM): 211
FP signal (Hsp90 in HEPG2 lysate; 37.037 nM compound): 211
FP signal (raw) (Hsp90 in HEPG2 lysate; 111.111 nM): 209
FP signal (Hsp90 in HEPG2 lysate; 111.111 nM compound): 209
FP signal (raw) (Hsp90 in HEPG2 lysate; 333.333 nM): 207
FP signal (Hsp90 in HEPG2 lysate; 333.333 nM compound): 207
FP signal (raw) (Hsp90 in HEPG2 lysate; 1000 nM): 181
FP signal (Hsp90 in HEPG2 lysate; 1000 nM compound): 181
FP signal (raw) (Hsp90 in HEPG2 lysate; 3000 nM): 105
FP signal (Hsp90 in HEPG2 lysate; 3000 nM compound): 105

Compound: CCNC(=O)c1noc(-c2cc(C(C)C)c(O)cc2O)c1-c1ccc(CN2CCOCC2)cc1 [AUY9222]
pEC50 (Hsp90 in HEPG2 lysate; refit block, unit inferred): 8.20

Compound: CC1(C)CC(=O)c2c(C(F)(F)F)nn(-c3ccc(C(N)=O)c(N[C@H]4CC[C@H](O)CC4)c3)c2C1 [SNX]
pEC50 (Hsp90 in HEPG2 lysate; read-out: FP EC50, rounded summary): 7.40

— paper PMC6345968, “Structural basis for species-selective targeting of Hsp90 in a pathogenic fungus” (Nature Communications, 2019)
